{
  "source": "patent US7504403B2",
  "about": "“Substituted heterocyclic compounds and methods of use” (Amgen Inc., priority 2004, dated 2009)",
  "data": [
    {"tested_on": "LPS induced TNF release", "test": "Lipopolysaccharide-Activated THP1 Cell TNF Production Assay", "assay_type": "cell-based", "conditions": "Homo sapiens, THP-1", "protocol": "Lipopolysaccharide-Activated THP1 Cell TNF Production Assay\nTHP1 cells are resuspended in fresh THP1 media (RPMI 1640, 10% heat-inactivated FBS, 1×PGS, 1×NEAA, plus 30 μM βME) at a concentration of 1E6/mL. One hundred microliters of cells per well are plated in a polystyrene 96-well tissue culture. One microgram per mL of bacterial LPS is prepared in THP1 media and is transferred to the wells. Test compounds are dissolved in 100% DMSO and are serially diluted 3 fold in a polypropylene 96-well microtiter plate (drug plate). HI control and LO control wells contain only DMSO. One microliter of test compound from the drug plate followed by 10 μL of LPS are transferred to the cell plate. The treated cells are induced to synthesize and secrete TNF-α at 37° C. for 3 h. Forty microliters of conditioned media are transferred to a 96-well polypropylene plate containing 110 μL of ECL buffer (50 mM Tris-HCl pH 8.0, 100 mM NaCl, 0.05% Tween 20, 0.05% NaN3 and 1%FBS) supplemented with 0.44 nM MAB610 monoclonal Ab (R&D Systems), 0.34 nM ruthenylated AF210NA polyclonal Ab (R&D Systems) and 44 μg/mL sheep anti-mouse M280 Dynabeads (Dynal). After a 2 h incubation at room temperature with shaking, the reaction is read on the ECL M8 Instrument (IGEN Inc.). A low voltage is applied to the ruthenylated TNF-α immune complexes, which in the presence of TPA (the active component in Origlo), results in a cyclical redox reaction generating light at […]. The amount of secreted TNF-α in the presence of compound compared with that in the presence of DMSO vehicle alone (HI control) is calculated using the formula: % control (POC)=(cpd−average LO)/(average HI−average LO)*100. Data (consisting of POC and inhibitor concentration in μM) is fitted to a 4-parameter equation (y=A+((B−A)/(1+((x/C)^D))), where A is the minimum y (POC) value, B is the maximum y (POC), C is the x (cpd concentration) at the point of inflection and D is the slope factor) using a Levenburg-Marquardt non-linear regression algorithm.", "units": {"IC50": "µM"}, "values": [
      {"smiles": "C[C@@H](Cc1cccc(CN)c1)Nc1nccc(N2CCCn3c2nc(-c2ccccc2)cc3=O)n1", "note": "[Example 49, 9-{2-[2-(3-Aminomethyl-phenyl)-1(S)-methyl-ethylamino]-pyrimidin-4-yl}-2-phenyl-6,7,8,9-tetrahydro-pyrimido[1,2-a]pyrimidin-4-one]", "IC50": "≤ 20"},
      {"smiles": "CC(N)Cc1ccc(CC(C)Nc2nccc(N3CCC(=O)N4CC=C(c5ccccc5)N=C43)n2)cc1", "note": "(centres unmarked) [Example 64, 1-(2-{2-[4-(2-Amino-propyl)-phenyl]-1-methyl-ethylamino}-pyrimidin-4-yl)-8-phenyl-1,2,3,6-tetrahydro-pyrimido[1,2-a]pyrimidin-4-one]", "IC50": "≤ 20"},
      {"smiles": "C[C@H](Nc1nccc(N2CCCn3c2cc(-c2ccccc2)cc3=O)n1)c1cccc(N2CCNCC2)c1", "note": "[Example 82, 8-Phenyl-1-{2-(S)-[1-(3-piperazin-1-yl-phenyl) -ethylamino]-pyrimidin-4-yl}-1,2,3,4-tetrahydro-pyrido[1,2-a]pyrimidin-6-one]", "IC50": "≤ 20"},
      {"smiles": "Nc1c(-c2ccccc2)nc2n(c1=O)CCCN2c1ccnc(NCCc2ccccc2)n1", "note": "[Example 18, 3-Amino-9-(2-phenethylamino-pyrimidin-4-yl) -2-phenyl-6,7,8,9-tetrahydro-pyrimido[1,2-a]pyrimidin-4-one]", "IC50": "≤ 20"},
      {"smiles": "O=C(NCCC1CN(c2ccnc(NCCc3ccccc3)n2)c2nc(-c3ccccc3)cc(=O)n2C1)OCc1ccccc1", "note": "(centres unmarked) [Example 52, {2-[6-Oxo-1-(2-phenethylamino-pyrimidin-4-yl)-8-phenyl-1,3,4,6-tetrahydro-2H-pyrimido[1,2-a]pyrimidin-3-yl]-ethyl}-carbamic acid benzyl ester]", "IC50": "≤ 20"},
      {"smiles": "O=C(O)CCC1CN(c2ccnc(NCCc3ccccc3)n2)c2nc(-c3ccccc3)cc(=O)n2C1", "note": "(centres unmarked) [Example 55, 3-[6-Oxo-1-(2-phenethylamino-pyrimidin-4-yl)-8-phenyl-1,3,4,6-tetrahydro-2H-pyrimido[1,2-a]pyrimidin-3-yl]-propionic acid]", "IC50": "≤ 20"},
      {"smiles": "C[C@H](Nc1nccc(N2CCCn3c2nc(-c2ccc(Cl)c(Cl)c2)cc3=O)n1)c1ccccc1", "note": "[Example 13, 2-(3,4-dichlorophenyl)-9-[2-(1(S)-phenyl-ethylamino) -pyrimidin-4-yl]-6,7,8,9-tetrahydro-pyrimido[1,2-a]pyrimidin-4-one]", "IC50": "≤ 20"},
      {"smiles": "O=c1cc(-c2ccccc2)cc2n1CCCN2c1cc(NCCc2ccccc2Cl)ncn1", "note": "[Example 86, 1-{6-[2-(2-Chloro-phenyl)-ethylamino]-pyrimidin-4-yl}-8-phenyl-1,2,3,4-tetrahydro-pyrido[1,2-a]pyrimidin-6-one]", "IC50": "≤ 20"},
      {"smiles": "CCc1cccc(-c2cc(=O)n3c(n2)N(c2ccnc(N[C@@H](C)c4ccccc4)n2)CCC3)c1", "note": "[Example 12, 2-(3-ethylphenyl)-9-[2-(1(S)-phenyl-ethylamino)-pyrimidin-4-yl]-6,7,8,9-tetrahydro-pyrimido[1,2-a]pyrimidin-4-one]", "IC50": "≤ 20"},
      {"smiles": "CC(Cc1cccc(CN)c1)Nc1nccc(N2CCCn3c2nc(-c2ccccc2)cc3=O)n1", "note": "(centres unmarked) [Example 44, 9-{2-[2-(3-Aminomethyl-phenyl)-1-methyl-ethylamino]-pyrimidin-4-yl}-2-phenyl-6,7,8,9-tetrahydro-pyrimido[1,2-a]pyrimidin-4-one]", "IC50": "≤ 20"},
      {"smiles": "CC(C)NCCC1CN(c2ccnc(NCCc3ccccc3)n2)c2nc(-c3ccccc3)cc(=O)n2C1", "note": "(centres unmarked) [Example 50, 7-(2-Isopropylamino-ethyl)-9-(2-phenethylamino-pyrimidin-4-yl) -2-phenyl-6,7,8,9-tetrahydro-pyrimido[1,2-a]pyrimidin-4-one]", "IC50": "≤ 20"},
      {"smiles": "C[C@H](Nc1nccc(N2CCCn3c2cc(-c2ccccc2)cc3=O)n1)c1cccc(Br)c1", "note": "[Example 81, 1-{2-(S)-[1-(3-Bromo-phenyl)-ethylamino]-pyrimidin-4-yl}-8-phenyl-1,2,3,4-tetrahydro-pyrido[1,2-a]pyrimidin-6-one]", "IC50": "≤ 20"},
      {"smiles": "COc1ccc([C@H](C)Nc2nccc(N3CCCn4c3cc(-c3ccccc3)cc4=O)n2)cc1", "note": "[Example 80, 1-{2-[(1S)-(4-Methoxy-phenyl)-ethylamino]-pyrimidin-4-yl}-8-phenyl-1,2,3,4-tetrahydro-pyrido[1,2-a]pyrimidin-6-one]", "IC50": "≤ 20"},
      {"smiles": "O=c1c([N+](=O)[O-])c(-c2ccccc2)nc2n1CCCN2c1ccnc(NCCc2ccccc2)n1", "note": "[Example 15, 3-Nitro-9-(2-phenethylamino-pyrimidin-4-yl)-2-phenyl-6,7,8,9-tetrahydro-pyrimido[1,2-a]pyrimidin-4-one]", "IC50": "≤ 20"},
      {"smiles": "C[C@H](CNc1nccc(N2CCCn3c2cc(-c2ccccc2)cc3=O)n1)c1ccccc1", "note": "[Example 79]", "IC50": "≤ 20"},
      {"smiles": "O=c1cc(-c2ccccc2)cc2n1CCN2c1ccnc(NCCc2ccccc2)n1", "note": "[Example 87, 1-(2-Phenethylamino-pyrimidin-4-yl)-7-phenyl-2,3-dihydro-1H-imidazo[1,2-a]pyridin-5-one]", "IC50": "≤ 20"},
      {"smiles": "CC(Cc1cccc(CO)c1)Nc1nccc(N2CCn3c2cc(-c2ccccc2)cc3=O)n1", "note": "(centres unmarked) [Example 88, 1-{2-[2-(3-Hydroxymethyl-phenyl)-1-methyl-ethylamino]-pyrimidin-4-yl}-7-phenyl-2,3-dihydro-1H-imidazo[1,2-a]pyridin-5-one]", "IC50": "≤ 20"},
      {"smiles": "CC(Cc1cccc(CN)c1)Nc1nccc(N2CCCn3c2cc(-c2ccccc2)cc3=O)n1", "note": "(centres unmarked) [Example 84, 1-{2-[2-(3-Aminomethyl-phenyl)-1-methyl-ethylamino]-pyrimidin-4-yl}-8-phenyl-1,2,3,4-tetrahydro-pyrido[1,2-a]pyrimidin-6-one]", "IC50": "≤ 20"},
      {"smiles": "O=c1cc(-c2ccccc2)cc2n1CCCN2c1ccnc(NCCc2c(Cl)cccc2Cl)n1", "note": "[Example 76, 1-{2-[2-(2,6-Dichloro-phenyl)-ethylamino]-pyrimidin-4-yl}-8-phenyl-1,2,3,4-tetrahydro-pyrido[1,2-a]pyrimidin-6-one]", "IC50": "≤ 20"},
      {"smiles": "O=c1cc(-c2ccccc2)cc2n1CCN2c1cncc(NCCc2ccccc2)n1", "note": "[Example 89, 1-(6-Phenethylamino-pyrazin-2-yl)-7-phenyl-2,3-dihydro-1H-imidazo[1,2-a]pyridin-5-one]", "IC50": "≤ 20"},
      {"smiles": "C[C@H](Nc1nccc(N2CCCn3c2nc(-c2cccc(N)c2)cc3=O)n1)c1ccccc1", "note": "[Example 7, 2-(3-aminophenyl)-9-[2-(1(S)-phenyl-ethylamino)-pyrimidin-4-yl]-6,7,8,9-tetrahydro-pyrimido[1,2-a]pyrimidin-4-one]", "IC50": "≤ 20"},
      {"smiles": "C[C@H](Nc1nccc(N2CCCn3c2nc(C(C)(C)C)cc3=O)n1)c1ccccc1", "note": "[Example 11, 2-(tert-butyl)-9-[2-(1(S)-phenyl-ethylamino)-pyrimidin-4-yl]-6,7,8,9-tetrahydro-pyrimido[1,2-a]pyrimidin-4-one]", "IC50": "≤ 20"},
      {"smiles": "O=c1cc(-c2ccccc2)cc2n1CCCN2c1ccnc(NCCc2ccccc2Cl)n1", "note": "[Example 75, 1-{2-[2-(2-Chloro-phenyl)-ethylamino]-pyrimidin-4-yl}-8-phenyl-1,2,3,4-tetrahydro-pyrido[1,2-a]pyrimidin-6-one]", "IC50": "≤ 20"},
      {"smiles": "NCCC1CN(c2ccnc(NCCc3ccccc3)n2)c2nc(-c3ccccc3)cc(=O)n2C1", "note": "(centres unmarked) [Example 51, 7-(2-Amino-ethyl)-9-(2-phenethylamino-pyrimidin-4-yl)-2-phenyl-6,7,8,9-tetrahydro-pyrimido[1,2-a]pyrimidin-4-one]", "IC50": "≤ 20"},
      {"smiles": "CC(C)NC(C)c1ccc(CCNc2nccc(N3CCC(=O)N4CC=C(c5ccccc5)N=C43)n2)cc1", "note": "(centres unmarked) [Example 62, 1-(2-{2[4-(1-Isopropylamino-ethyl)-phenyl]-ethylamino}-pyrimidin-4-yl)-8-phenyl-1,2,3,6-tetrahydro-pyrimido[1,2-a]pyrimidin-4-one]", "IC50": "≤ 20"},
      {"smiles": "C[C@H](Nc1nccc(N2CCCn3c2nc(-c2cccc([N+](=O)[O-])c2)cc3=O)n1)c1ccccc1", "note": "[Example 6, 2-(3-nitrophenyl)-9-[2-(1(S)-phenyl-ethylamino)-pyrimidin-4-yl]-6,7,8,9-tetrahydro-pyrimido[1,2-a]pyrimidin-4-one]", "IC50": "≤ 20"},
      {"smiles": "C[C@H](Nc1nccc(N2CCCn3c2nc(-c2ccccc2C(F)(F)F)cc3=O)n1)c1ccccc1", "note": "[Example 3, 2-(2-trifluoromethylphenyl)-9-[2-(1(S)-phenyl-ethylamino) -pyrimidin-4-yl]-6,7,8,9-tetrahydro-pyrimido[1,2-a]pyrimidin-4-one]", "IC50": "≤ 20"},
      {"smiles": "CC(C)NCc1cccc(CC(C)Nc2nccc(N3CCCn4c3nc(-c3ccccc3)cc4=O)n2)c1", "note": "(centres unmarked) [Example 19, 9-(2-{2-[3-(Isopropylamino-methyl)-phenyl]-1-methyl-ethylamino}-pyrimidin-4-yl) -2-phenyl-6,7,8,9-tetrahydro-pyrimido[1,2-a]pyrimidin-4-one]", "IC50": "≤ 20"},
      {"smiles": "O=c1cc(-c2ccccc2)cc2n1CCCN2c1ccnc(NCCc2ccc(Cl)cc2Cl)n1", "note": "[Example 77, 1-{2-[2-(2,4-Dichloro-phenyl)-ethylamino]-pyrimidin-4-yl}-8-phenyl-1,2,3,4-tetrahydro-pyrido[1,2-a]pyrimidin-6-one]", "IC50": "≤ 20"}
    ]}
  ]
}
